Reference: US8222294B2, “Combinations of an anti emetic agent and an enkephalinase inhibitor” (Bioproject, priority 2004, dated 2012)
Entries after “also recorded” stand apart in the source; their conditions may differ. Where two headings read alike, the source gives them in different places.

Key:
[1] = test system: L.P.S. typhimurium-induced diarrhoea; assay: L.P.S. typhimurium-induced diarrhoea; format: in vivo; settings: dexecadotril 0.1 mg/kg alone
drug metabolism pathway = format: in vitro ADME; settings: enkephalinase inhibitors
[2] = test system: abdominal pain (abdominal cramps elicited by rectal distention); assay: abdominal cramps elicited by rectal distention in trinitrobenzenesulfonic acid-pretreated rats; format: in vivo; settings: administered alone
Description: The combinations of the invention involve a synergy against abdominal pain as the authors of the present invention have discovered using a classical model of abdominal pain in rodents (Morteau et al., Gastroenterology, 1993, 104, 47). Rats were […] trinitrobenzenesulfonic acid to induce intestinal inflammation and pain sensitivity, as assessed by evaluation of the abdominal cramps elicited by rectal distention.

E. coli toxins = settings: cited from earlier work
[3] = test system: castor oil-induced diarrhoea; assay: castor oil-induced diarrhoea in rats; format: in vivo
Method: The outstanding activity of the combinations of the invention was evidenced on an animal model of experimental diarrhoea. A combination of the invention was evaluated on the castor oil-induced diarrhoea in rats, according to Niemegeers et al. ([…]. (Drug Res), 1974, 24 No. 10). Rats received ondansetron (0.1 mg/kg, p.o.) and racecadotril (40 mg/kg, p.o.) administered together. […] As comparative examples, ondansetron and racecadotril were also administered alone at the same dosages.

[4] = test system: cytochrome P 450 subtypes; assay: interaction with cytochrome P 450 subtypes; format: in vitro ADME
[5] = 5-HT3 receptor inhibitors; cited from earlier work
[6] = in vivo; cited from earlier work
Salmonella = settings: cited from earlier work
gastroenteritis = settings: cited from earlier work
abdominal cramps = settings: via protection of endogenous opioid peptides; cited from earlier work
colonic transit = colonic transit in rodents; format: in vivo; settings: enkephalinase inhibitor alone
Description: This effect is blocked by co-administration of ondansetron. Since the transit is already strongly accelerated in gastroenteritis, the combinations of the present invention allow the antisecretory pro-absorptive activity of enkephalinase inhibitors to be exerted for a longer time upon the watery intestinal lumen content, thus resulting in a synergic antidiarrheal effect.

[7] = racecadotril 40 mg/kg p.o. alone

CC(=O)SC[C@H](Cc1ccccc1)C(=O)NCC(=O)OCc1ccccc1 [dexecadotril]
antidiarrheal activity [1]: an antidiarrheal activity | metabolism pathway (drug metabolism pathway): mainly occurs via S-methylation | prevention of pain manifestations [2]: partially prevent | antisecretory activity (E. coli toxins): active | antidiarrheal activity ([3]; dexecadotril 0.1 mg/kg alone): an antidiarrheal activity; also recorded: only partially inactive | interaction with cytochrome P 450 subtypes [4]: do not significantly interact

CN1C2CCCC1CC(NC(=O)c1nn(C)c3ccccc13)C2 (stereo not drawn) [granisetron]
metabolism pathway [5]: oxidation by various cytochrome P 450 subtypes | plasma half-life [6]: ~3 h

Cc1nccn1CC1CCc2c(c3ccccc3n2C)C1=O (stereo not drawn) [ondansetron]
prevention of hypersecretion (Salmonella): prevents the hypersecretion | prevention of pain manifestations [2]: partially prevent | antisecretory activity (E. coli toxins): not | metabolism pathway [5]: oxidation by various cytochrome P 450 subtypes | antidiarrheal activity ([3]; ondansetron 0.1 mg/kg p.o. alone): inactive | antidiarrheal activity ([3]; ondansetron 1 mg/kg alone): inactive | plasma half-life [6]: ~3 h | diarrhoea (gastroenteritis): not significantly affected or even increased; also recorded: fail to affect diarrhoea; also recorded: increase its duration | emesis (gastroenteritis; particularly in children): significantly reduced

CC(=O)SCC(Cc1ccccc1)C(=O)NCC(=O)OCc1ccccc1 (stereo not drawn) [racecadotril]
metabolism pathway (drug metabolism pathway): mainly occurs via S-methylation | prevention of pain manifestations [2]: partially prevent | antisecretory activity (E. coli toxins): active | antinociceptive effect (abdominal cramps): partial antinociceptive effect | duration of protection [3, 7]: 4 h | protection against diarrhoea [3, 7]: partial protection | plasma half-life [6]: ~3 h | abdominal pain (gastroenteritis): significantly diminished | effect on colonic transit (colonic transit): tend to accelerate colonic transit | interaction with cytochrome P 450 subtypes [4]: do not significantly interact
